# Data reported in patent US9365522B2, “Pyrazole amide derivative” (AMGEN INC., priority 2015, dated 2016).
# Target: T1, ligand binding domain of human ROR gamma (Homo sapiens, UniProt P51449)
# T1 construct: NM_001001523; expressed in transfected cells; host or cells: HEK293T
# T1 sequence (P51449 247-497 isoform P51449-2): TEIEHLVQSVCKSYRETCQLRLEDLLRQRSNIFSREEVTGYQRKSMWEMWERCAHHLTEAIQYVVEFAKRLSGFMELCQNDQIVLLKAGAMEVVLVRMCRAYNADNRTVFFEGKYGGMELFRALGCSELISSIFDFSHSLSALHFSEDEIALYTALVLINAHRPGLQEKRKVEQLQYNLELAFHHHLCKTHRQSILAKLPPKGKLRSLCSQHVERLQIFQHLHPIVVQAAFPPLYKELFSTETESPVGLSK
# Assay: ROR gamma reporter gene assay (GAL4-RORγ LBD luciferase, Dual-Glo)
# Type: cell-based
# Conditions: HEK293T cells transfected with pM-ROR gamma, 8 concentrations 3.5 nM to 10.5 μM, 24 h incubation; read-out: result (pIC50, inhibition of RORγ transcriptional activity) (converted)
# Summary of the method: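 HEK293T cells were co-transfected with GAL4 DBD fused to human RORγ LBD (aa 247-497), a 5×UAS firefly luciferase reporter and CMV-driven renilla luciferase, in medium with 10% charcoal-stripped FBS.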
row,SMILES,IC50 [pM]
1,"O=C(CN(Cc1cncnc1)C(=O)c1cnn([C@H]2CC[C@H](C(=O)O)CC2)c1C(F)(F)F)c1c(Cl)cccc1Cl [Example 146, trans-4-(4-((2-(2,6-dichlorophenyl)-2-oxoethyl)-(pyrimidin-5-ylmethyl)carbamoyl)-5-(trifluoromethyl)pyrazol-1-yl)cyclohexane-1-carboxylic acid]",148000
2,"O=C(CN(Cc1ccccc1O)C(=O)c1cnn([C@H]2CC[C@H](C(=O)O)CC2)c1C(F)(F)F)c1c(Cl)cncc1Cl [Example 147, trans-4-(4-((2-(3,5-dichloropyridin-4-yl)-2-oxoethyl)-((2-hydroxyphenyl)methyl)carbamoyl)-5-(trifluoromethyl)pyrazol-1-yl)cyclohexane-1-carboxylic acid]",347000
3,"CC(C)(C)c1c(C(=O)N(CC(=O)c2c(Cl)cncc2Cl)Cc2cc(F)cc(F)c2)cnn1[C@H]1CC[C@H](C(=O)O)CC1 [Example 148, trans-4-(5-tert-butyl-4-((2-(3,5-dichloropyridin-4-yl)-2-oxoethyl)-((3,5-difluorophenyl)methyl)carbamoyl)pyrazol-1-yl)cyclohexane-1-carboxylic acid]",479000
4,"O=C(CN(Cc1ccnnc1)C(=O)c1cnn([C@H]2CC[C@H](C(=O)O)CC2)c1C(F)(F)F)c1c(Cl)cccc1Cl [Example 151, trans-4-(4-((2-(2,6-dichlorophenyl)-2-oxoethyl)-(pyridazin-4-ylmethyl)carbamoyl)-5-(trifluoromethyl)pyrazol-1-yl)cyclohexane-1-carboxylic acid]",8.13e+06
5,"CN1CCC(CN(CC(=O)c2c(Cl)cncc2Cl)C(=O)c2cnn([C@H]3CC[C@H](C(=O)O)CC3)c2C(F)(F)F)CC1 [Example 154, trans-4-(4-((2-(3,5-dichloropyridin-4-yl)-2-oxoethyl)-((1-methylpiperidin-4-yl)methyl)carbamoyl)-5-(trifluoromethyl)pyrazol-1-yl)cyclohexane-1-carboxylic acid]",> 1e+07
6,"O=C1CC[C@@H](CN(CC(=O)c2c(Cl)cncc2Cl)C(=O)c2cnn([C@H]3CC[C@H](C(=O)O)CC3)c2C(F)(F)F)N1 [Example 157, trans-4-(4-((2-(3,5-dichloropyridin-4-yl)-2-oxoethyl)-(((2S)-5-oxopyrrolidin-2-yl)methyl)carbamoyl)-5-(trifluoromethyl)pyrazol-1-yl)cyclohexane-1-carboxylic acid]",> 1e+07
7,"O=C(CN(Cc1cc(F)cc(F)c1)C(=O)c1cnn([C@H]2CC[C@H](C(=O)O)CC2)c1CO)c1c(Cl)cncc1Cl [Example 159, trans-4-(4-((2-(3,5-dichloropyridin-4-yl)-2-oxoethyl)-((3,5-difluorophenyl)methyl)carbamoyl)-5-(hydroxymethyl)pyrazol-1-yl)cyclohexane-1-carboxylic acid]",> 1e+07
8,"O=C(CN(C(=O)c1cnn([C@H]2CC[C@H](C(=O)O)CC2)c1C(F)(F)F)[C@H]1C[C@@H]1c1ccccc1)c1c(Cl)cncc1Cl [Example 161, trans-4-(4-((2-(3,5-dichloropyridin-4-yl)-2-oxoethyl)-((1S,2R)-2-phenylcyclopropyl)carbamoyl)-5-(trifluoromethyl)pyrazol-1-yl)cyclohexane-1-carboxylic acid]",2.19e+06
9,"CC(C)c1c(C(=O)N(CC(=O)c2c(Cl)cncc2Cl)Cc2cc(F)cc(F)c2)cnn1[C@H]1CC[C@H](C(=O)O)CC1 [Example 162, trans-4-(4-((2-(3,5-dichloropyridin-4-yl)-2-oxoethyl)-((3,5-difluorophenyl)methyl)carbamoyl)-5-propan-2-ylpyrazol-1-yl)cyclohexane-1-carboxylic acid]",1.02e+06
10,"NCc1c(C(=O)N(CC(=O)c2c(Cl)cncc2Cl)Cc2cc(F)cc(F)c2)cnn1[C@H]1CC[C@H](C(=O)O)CC1 [Example 163, trans-4-(5-(aminomethyl)-4-((2-(3,5-dichloropyridin-4-yl)-2-oxoethyl)-((3,5-difluorophenyl)methyl)carbamoyl)pyrazol-1-yl)cyclohexane-1-carboxylic acid]",> 1e+07
11,"Cc1c(C(=O)N(CC(=O)c2c(Cl)cncc2Cl)Cc2cc(F)cc(F)c2)cnn1[C@H]1CC[C@H](C(=O)O)CC1 [Example 164, trans-4-(4-((2-(3,5-dichloropyridin-4-yl)-2-oxoethyl)-((3,5-difluorophenyl)methyl)carbamoyl)-5-methylpyrazol-1-yl)cyclohexane-1-carboxylic acid]",1.17e+06
12,"O=C(CN(Cc1ccc(F)cc1)C(=O)c1cnn(C23CCC(C(=O)O)(CC2)CC3)c1C(F)(F)F)c1c(Cl)cncc1Cl [Example 166, 4-(4-((2-(3,5-dichloropyridin-4-yl)-2-oxoethyl)-((4-fluorophenyl)methyl)carbamoyl)-5-(trifluoromethyl)pyrazol-1-yl)bicyclo[2.2.2]octane-1-carboxylic acid]",15500

# Continued, values first:
row,IC50 [pM],SMILES
1,87100,"CC(C)(C)OCCN(CC(=O)c1c(Cl)cc(C(F)(F)F)cc1Cl)C(=O)c1cnn([C@H]2CC[C@H](C(=O)O)CC2)c1C(F)(F)F [Example 144, trans-4-(4-((2-(2,6-dichloro-4-(trifluoromethyl)phenyl)-2-oxoethyl)-(2-((2-methylpropan-2-yl)oxy)ethyl)carbamoyl)-5-(trifluoromethyl)pyrazol-1-yl)cyclohexane-1-carboxylic acid]"
2,60300,"CC(C)(C)OCCN(CC(=O)c1c(Cl)cc(C(F)(F)F)cc1Cl)C(=O)c1cnn([C@H]2CC[C@](C)(C(=O)O)CC2)c1C(F)(F)F [Example 149, trans-4-(4-((2-(2,6-dichloro-4-(trifluoromethyl)phenyl)-2-oxoethyl)-(2-((2-methylpropan-2-yl)oxy)ethyl)carbamoyl)-5-(trifluoromethyl)pyrazol-1-yl)-1-methylcyclohexane-1-carboxylic acid]"
3,53700,"O=C(CN(CC1(C(F)(F)F)CC1)C(=O)c1cnn([C@H]2CC[C@H](C(=O)O)CC2)c1C(F)(F)F)c1c(Cl)cncc1Cl [Example 150, trans-4-(4-((2-(3,5-dichloropyridin-4-yl)-2-oxoethyl)-((1-(trifluoromethyl)cyclopropyl)methyl)carbamoyl)-5-(trifluoromethyl)pyrazol-1-yl)cyclohexane-1-carboxylic acid]"
4,2.82e+06,"O=C(CN(Cc1cc(F)cc(F)c1)C(=O)c1cnn([C@H]2CC[C@H](C(=O)O)CC2)c1C(F)(F)F)c1ncc(C(F)(F)F)cc1Cl [Example 152, trans-4-(4-((2-(3-chloro-5-(trifluoromethyl)pyridin-2-yl)-2-oxoethyl)-((3,5-difluorophenyl)methyl)carbamoyl)-5-(trifluoromethyl)pyrazol-1-yl)cyclohexane-1-carboxylic acid]"
5,209000,"O=C(CN(Cc1cccc(O)c1)C(=O)c1cnn([C@H]2CC[C@H](C(=O)O)CC2)c1C(F)(F)F)c1c(Cl)cncc1Cl [Example 153, trans-4-(4-((2-(3,5-dichloropyridin-4-yl)-2-oxoethyl)-((3-hydroxyphenyl)methyl)carbamoyl)-5-(trifluoromethyl)pyrazol-1-yl)cyclohexane-1-carboxylic acid]"
6,5.13e+06,"CC(C)(C)O[C@H]1C[C@@H](N(CC(=O)c2c(Cl)cncc2Cl)C(=O)c2cnn([C@H]3CC[C@H](C(=O)O)CC3)c2C(F)(F)F)C1 [Example 155, trans-4-(4-((2-(3,5-dichloropyridin-4-yl)-2-oxoethyl)-(3-((2-methylpropan-2-yl)oxy)cyclobutyl)carbamoyl)-5-(trifluoromethyl)pyrazol-1-yl)cyclohexane-1-carboxylic acid]"
7,1.02e+06,"CC[C@]1(C(=O)O)CC[C@H](n2ncc(C(=O)N(CC(=O)c3c(Cl)cncc3Cl)Cc3cc(F)cc(F)c3)c2C(F)(F)F)CC1 [Example 156, trans-4-(4-((2-(3,5-dichloropyridin-4-yl)-2-oxoethyl)-((3,5-difluorophenyl)methyl)carbamoyl)-5-(trifluoromethyl)pyrazol-1-yl)-1-ethylcyclohexane-1-carboxylic acid]"
8,> 1e+07,"O=C1CC[C@H](CN(CC(=O)c2c(Cl)cncc2Cl)C(=O)c2cnn([C@H]3CC[C@H](C(=O)O)CC3)c2C(F)(F)F)N1 [Example 158, trans-4-(4-((2-(3,5-dichloropyridin-4-yl)-2-oxoethyl)-(((2R)-5-oxopyrrolidin-2-yl)methyl)carbamoyl)-5-(trifluoromethyl)pyrazol-1-yl)cyclohexane-1-carboxylic acid]"
9,24500,"CC12CCC(CN(CC(=O)c3c(Cl)cncc3Cl)C(=O)c3cnn([C@H]4CC[C@H](C(=O)O)CC4)c3C(F)(F)F)(CC1)O2 [Example 160, trans-4-(4-((2-(3,5-dichloropyridin-4-yl)-2-oxoethyl)-((1-methyl-7-oxabicyclo[2.2.1]heptan-4-yl)methyl)carbamoyl)-5-(trifluoromethyl)pyrazol-1-yl)cyclohexane-1-carboxylic acid]"
10,1.17e+06,"O=C(CN(Cc1nc(Cl)cs1)C(=O)c1cnn([C@H]2CC[C@H](C(=O)O)CC2)c1C(F)(F)F)c1c(Cl)cncc1Cl [Example 165, trans-4-(4-((4-chloro-1,3-thiazol-2-yl)methyl-(2-(3,5-dichloropyridin-4-yl)-2-oxoethyl)carbamoyl)-5-(trifluoromethyl)pyrazol-1-yl)cyclohexane-1-carboxylic acid]"
